Literature values in patent EP2932963A1, “Stable pharmaceutical dosage forms comprising Levothyroxine sodium” (Uni-Pharma Kleon Tsetis Pharmaceutical Laboratories S.A., priority 2014, dated 2015).
Where two headings read alike, the source gives them in different places.

Experiments:
[1] = dependence on pH

In the case of `N[C@@H](Cc1cc(I)c(Oc2cc(I)c(O)c(I)c2)c(I)c1)C(=O)O` [Levothyroxine], the pKa (amino group) is given as 9.96, the pKa (carboxyl group) is given as 2.4 and the pKa (phenolic group) is given as 6.87. The aqueous solubility [1] was “reduces from pH 1 to 3 and increases above pH 7”.
